A short description of the experiment: Rab7 GTP binding inhibition, two preparations – biochemical, Rab7 wildtype, bead flow cytometry, two protein sources, mechanism study, late-stage follow-up (AID 720689). As to conditions: GST-Rab7 beads, Bodipy-FL-GTP binding.

The EC50 is the concentration at which the effect is half-maximal. Regarding `CC1(C)Cc2c(sc(NC(=S)NC(=O)c3cccc(N=[N+]=[N-])c3)c2C(=O)O)CO1`, the EC50 was 1.26 µM (protein source 1) and 1.24 µM (protein source 2).

On to `CC1(C)Cc2c(sc(NC(=S)NC(=O)c3ccc(N=[N+]=[N-])cc3)c2C(=O)O)CO1`, for which the EC50 is, setting by setting: (protein source 1) 0.219 µM; (protein source 2) 0.205 µM.

These data come from PubChem BioAssay AID720689 (NMMLSC, 2013).
